Consider three compounds from patent US11123319B2, “Methods and compositions for treating edema refractory to oral diuretics” (RESQ Pharmaceuticals LLC, priority 2019, dated 2021).

The nature of data set [1]: Solubility of bumetanide salts formed in situ with various bases (saturated solution, HPLC). It counts as physicochemical. To be noted: deionized water with base added (salt formed in situ), thermodynamic from solid, 20 mg bumetanide in 1 mL deionized water + base, 0.22 μm filtrate, read-out: Calculated conc. (measured solubility of bumetanide salt).
Experimental: The acid form of bumetanide was weighed out to 20 mg and dissolved in 1 mL of deionized water by mixing with a vortex to form a low-pH solution of bumetanide. To this low pH bumetanide solution, a determined amount of base was added and mixed using a vortex for 2 minutes, to form a solution having a pH suitable for nasal administration. With the increasing pH the bumetanide salt formed in situ precipitated, in part, to form a saturated solution of the resulting salt form. The saturated solution was then filtered through a 0.22 μm filter to remove all precipitated bumetanide salt. The filtrate was collected, and its pH was measured. An aliquot of the saturated solution was assayed for bumetanide by HPLC to determine the maximum concentration achievable for the salt form in water at about neutral pH.
This procedure was repeated for various bases, including arginine, lysine, potassium, sodium, glycine, histidine, and the cationic lipophilic surfactants soy lecithin, distearoyl glycerol-3-phosphatidylamine, L-α-phosphatidylethanolamine and bis(2-ethylhexyl)amine, in order to determine the maximum solubility of each bumetanide salt solution.
A short description of data set [2]: Stability of arginine and potassium bumetanide salt solutions over four weeks at 5 °C or 25 °C. It counts as physicochemical. Particulars: for stability in solution (conclusion): at either 5° C. or 25° C. As for the experimental part: The stability of the arginine and potassium bumetanide salts was monitored over a four week period with storage at either 2-8° C. or 25° C. for that time period. The bumetanide salt solutions were evaluated on the basis of pH, concentration of bumetanide in solution, the percent assay recovery and the presence of an impurity (see Tables 18 and 19).

Data set [3] is described as follows: Serum pharmacokinetics of bumetanide after single intranasal, sublingual or intravenous dose in dogs. Particulars: both sexes, beagle, dog, in vivo, 0.5-mg IV dose (Second Replicate), individual animals. The protocol:
The purpose of this study was to assess the pharmacokinetic profiles of various formulations of bumetanide, including arginine bumetanide salts (F69), potassium bumetanide salts (F10), an bumetanide emulsion (FE-9), and a nano-emulsion of bumetanide (FNE-1), which are described in Table 42, when each formulation is administered as a single intranasal dose or as a single sublingual dose in different vehicles when compared to single IV administration dose in male and female beagle dogs.
A total of four dogs were assigned to the study (3 males, 8-12 kg and 1 female, 7-11 kg). Because bumetanide is a diuretic, 30 minutes prior to dosing, the dogs received a 100 mL injection of Lactated Ringer's solution subcutaneously (SQ) for all events. The 100 mL injection was repeated ˜2 hours post-dose.
This study was conducted in 9 Events in two phases (A and B) in the same animals, separated by approximately a 48 hour or more washout period between events in each phase and ˜2 weeks rest period between phases, meaning Phase B events were initiated after ˜2 weeks rest period from completion of Event 5. The dosing regimen for Phase A and Phase B events are described in Table 43 and 44 respectively.
For intranasal administration, each dog was held in an upright position with the nose pointing up. […]

Data set [4] can be described thus: Solubility of bumetanide (free acid) in water in the presence and absence of surfactant, HPLC. Type of data set: physicochemical. To be noted: 10 mg in 1 mL deionized water, no surfactant. The protocol:
Bumetanide, 10 mg, in its free acid form was added to 1 mL of deionized water and mixed using a vortex and sonicator. The solution was filtered using a 0.22 μm nylon syringe filter. To 900 μL deionized water, 100 μL of the filtered bumetanide solution was added before being characterized for the concentration of the bumetanide in solution using HPLC. The concentration of bumetanide was determined using a standard curve generated by bumetanide solutions of known concentrations. […] Therefore, to the 10 mg of bumetanide, 1 mL of deionized water containing 1.0%, 0.5% or 0.1% of the surfactant tetradecyl-β-D-maltoside. The bumetanide was then solubilized using a vortex and sonicator, after which it was filtered using a 0.22 μm nylon syringe filter. To 900 μL deionized water, 100 μL of the filtered bumetanide solution was added before being characterized for the concentration of the bumetanide in solution using HPLC. The resulting bumetanide concentrations are recorded in Table 1.

Each structure is given as a SMILES string. Structures can show the parent of a compound that is named as a salt.

With `CCCCNc1cc(C(=O)O)cc(S(N)(=O)=O)c1Oc1ccccc1` [potassium bumetanide salt], the solubility at 2 min in data set [1] is 20.2 mg/mL. Further, the Assay in data set [2] (1 week, 5° C.) is 5.18 mg/mL; in data set [2] (1 week, 25° C.), 5.10 mg/mL; in data set [2] (2 weeks, 5° C.) it was 4.97 mg/mL; in data set [2] (2 weeks, 25° C.), 4.96 mg/mL; in data set [2] (4 weeks, 5° C.), 5.00 mg/mL; in data set [2] (4 weeks, 25° C.) it was 5.03 mg/mL. In data set [2] (T0), the Assay amounted to 5.10 mg/mL. For the same compound, the pH in data set [2] (1 week, 5° C.) turned out to be 7.0; in data set [2] (1 week, 25° C.), 7.0; in data set [2] (2 weeks, 5° C.), 7.0; in data set [2] (2 weeks, 25° C.), 7.1; in data set [2] (4 weeks, 5° C.), 7.0; in data set [2] (4 weeks, 25° C.), 7.1. For the same compound, the pH in data set [2] (T0) is on record as 7.0. Besides, the Osmolality in data set [2] (T0) came out at 317 mOsm/kg. Moreover, in data set [2] (T0), the Viscosity was found to be 1.3 cP. Moreover, in data set [2], the “stability in solution (conclusion)” value is “stable for up to four weeks”.

Take `CCCCNc1cc(C(=O)O)cc(S(N)(=O)=O)c1Oc1ccccc1.N=C(N)NCCCC(N)C(=O)O` [arginine bumetanide salt]: the Assay in data set [2] (1 week, 5° C.) was 5.08 mg/mL; in data set [2] (1 week, 25° C.) it was 5.06 mg/mL; in data set [2] (2 weeks, 5° C.) it was 4.99 mg/mL; in data set [2] (2 weeks, 25° C.) it was 4.97 mg/mL; in data set [2] (4 weeks, 5° C.) it was 4.89 mg/mL; in data set [2] (4 weeks, 25° C.), 4.97 mg/mL. Further, the Assay in data set [2] (T0) stood at 5.07 mg/mL. Moreover, the pH in data set [2] (1 week, 5° C.) is 7.0; in data set [2] (1 week, 25° C.), 7.1; in data set [2] (2 weeks, 5° C.), 7.0; in data set [2] (2 weeks, 25° C.), 7.0; in data set [2] (4 weeks, 5° C.), 7.0; in data set [2] (4 weeks, 25° C.) it was 7.1. Further, the pH in data set [2] (T0) worked out at 7.0. The Osmolality in data set [2] (T0) came out at 335 mOsm/kg. Moreover, the Viscosity in data set [2] (T0) is given as 1.3 cP. Also, in data set [2], the “stability in solution (conclusion)” value was “stable for up to four weeks”. For the same compound, in data set [2] (initially or after four weeks, 5° C. and 25° C.), the “impurity by HPLC” value is “no impurity was detected”.

Compound `CCCCNc1cc(C(=O)O)cc(S(N)(=O)=O)c1Oc1ccccc1` [Bumetanide, bumetanide] yielded a concentration at 45 min in data set [3] of 13.9 ng/mL. In addition, the “solubility of free acid form in water” value in data set [4] was “Nearly no bumetanide in the free acid form was soluble water”.
